From patent US4649150A, “Antiulcerogenic amidine derivatives of 2-substituted 4-phenylimidazole” (Istituto de Angeli, S.p.A., priority 1983, dated 1987)
Like-named read-outs stand apart in the source and are kept apart here.

Tests used:
[1] = molecular target: T1, histamine H2 -receptors (Cavia porcellus, UniProt P47747); test: In vitro inhibitory activity in histamine-induced tachycardia (guinea pig atria); inhibition of the histamine-evoked positive chronotropic effect; conditions: isolated guinea pig atria, Krebs-Henseleit pH 7.4, 32° C., histamine 10^-6 g.ml^-1, 30 minutes; read-out: EC50 (average effective concentration of the H2-antagonists, inhibition of histamine-induced tachycardia)
T1 construct: isolated guinea pig atria suspended in an organ bath; from tissue; host or cells: isolated guinea pig atria
T1 sequence (P47747 whole entry): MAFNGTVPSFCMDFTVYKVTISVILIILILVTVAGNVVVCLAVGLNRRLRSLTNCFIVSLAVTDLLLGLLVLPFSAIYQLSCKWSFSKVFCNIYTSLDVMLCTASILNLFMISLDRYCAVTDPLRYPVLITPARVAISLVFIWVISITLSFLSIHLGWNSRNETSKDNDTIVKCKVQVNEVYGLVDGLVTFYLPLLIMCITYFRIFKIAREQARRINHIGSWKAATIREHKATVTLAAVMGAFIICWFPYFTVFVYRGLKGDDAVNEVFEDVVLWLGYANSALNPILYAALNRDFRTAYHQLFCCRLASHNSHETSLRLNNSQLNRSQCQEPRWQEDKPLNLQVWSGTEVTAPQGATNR
Procedure: The myocardial preparation, loaded with 1 g isometric tension, was allowed to stabilize for 60 minutes, and myocardial contractions were recorded through an isometric lever connected to a strain-gauge coupler, and the instantaneous rate was monitored with a cardiotachometer and a heat-writing pen recorder. After two control responses to histamine (10^-6 g.ml^-1) the test compounds were added to the bath at the desired final concentration and left for 30 minutes before the atria were again challenged with histamine. The chronotropic response obtained in the presence of the antagonist was then compared to the control response to histamine, and the percent reduction of the histamine H2 -evoked response was calculated. […] 3, Smooth muscle, Ed. Daniel E. E. Paton, M., Plenum Press. New York (1975); Ash and Schild, Br. J. Pharmacol. Chemother. 27, 427-439, 1966.

[2] = tested on: histamine-induced gastric secretion of acid; test: In vivo antisecretory activity in histamine-induced gastric secretion (stomach perfused rat); conditions: iv, read-out: ED50 (histamine-induced gastric secretion)
Source text: The ability of the test compounds to inhibit histamine-induced gastric secretion of acid was investigated after intravenous or intraduodenal administration in stomach perfused rats, according to Gosh and Schild [Br. J. Pharmacol. Chemother. 13, 54 (1958)]. The preparation of the animals in general anesthesia (urethane 1 g.kg^-1 i.p.) and constant temperature was achieved by inserting and tying in place polyethyl tubes (PE 50) in the esophagus and in the pyloric-antral region. After the stomach was washed to remove residuals of food, continuous perfusion of the stomach was started with saline, 0.5 ml.min^-1 (37° C.), primed by a Jobling peristaltic pump. After 30 minutes of perfusion adaptation, samples of the stomach perfusate were collected at 30 min. intervals and titrated for acid content, expressed as μEq of 1N NaOH. As control acid output became constant, intravenous perfusion of histamine (1 mg.kg^-1hr^-1) was started and maintained throughout the experimental period. After the acid secretion had reached the steadily higher level, increasing doses of the test compound were injected intravenously in order to obtain dose-response functions. The ED50 was then calculated by standard procedure.

[3] = stomach perfused rat, urethane anesthesia, histamine 1 mg.kg^-1hr^-1 i.v., values expressed taking the compound as a base

Row | EC50 [1] [nM] | SMILES | ED50 [2, 3] [mg/kg] | ED50 ([2]; Rattus norvegicus) [mg/kg]
1 | 400 | Cc1nc(-c2ccc(N=CNC(C)(C)C)cc2)c[nH]1 [Example 17, N-tert.Butyl-N'-[4-(2-methyl-imidazol-4-yl)phenyl]-formamidine] | 0.08 | –
2 | 194 | CC(C)NC=Nc1ccc(-c2c[nH]c(O)n2)cc1 [16 (aa), N-Isopropyl-N'-[4-(2-hydroxy-imidazol-4-yl)phenyl]-formamidine] | 0.065 | –
3 | – | CN/C(=N/CCSCc1nc[nH]c1C)NC#N [Cimetidine, reference compound] | – | 0.56
4 | 120 | C=CCNC=Nc1ccc(-c2c[nH]c(C)n2)cc1 [16 (c), N-Allyl-N'-[4-(2-methyl-imidazol-4-yl)phenyl]-formamidine] | 0.025 | –
5 | 180 | Cc1nc(-c2ccc(N=CNC(C)C)cc2)c[nH]1 [16 (b), N-Isopropyl-N'-[4-(2-methyl-imidazol-4-yl)phenyl]-formamidine] | 0.067 | –
6 | 150 | CCNC=Nc1ccc(-c2c[nH]c(C)n2)cc1 [16 (a), N-Ethyl-N'-[4-(2-methyl-imidazol-4-yl)phenyl]-formamidine] | 0.032 | –
